The record followed here is US8080657B2, “Compounds of reverse turn mimetics and the use thereof” (Choongwae Pharma Corporation, priority 2008, dated 2011).

The first experiment deals with T1, cDNA-expressed human hepatic CYP3A4 (Homo sapiens, UniProt P08684).
T1 construct: purchased BD Gentest 456202
T1 sequence (P08684 whole entry): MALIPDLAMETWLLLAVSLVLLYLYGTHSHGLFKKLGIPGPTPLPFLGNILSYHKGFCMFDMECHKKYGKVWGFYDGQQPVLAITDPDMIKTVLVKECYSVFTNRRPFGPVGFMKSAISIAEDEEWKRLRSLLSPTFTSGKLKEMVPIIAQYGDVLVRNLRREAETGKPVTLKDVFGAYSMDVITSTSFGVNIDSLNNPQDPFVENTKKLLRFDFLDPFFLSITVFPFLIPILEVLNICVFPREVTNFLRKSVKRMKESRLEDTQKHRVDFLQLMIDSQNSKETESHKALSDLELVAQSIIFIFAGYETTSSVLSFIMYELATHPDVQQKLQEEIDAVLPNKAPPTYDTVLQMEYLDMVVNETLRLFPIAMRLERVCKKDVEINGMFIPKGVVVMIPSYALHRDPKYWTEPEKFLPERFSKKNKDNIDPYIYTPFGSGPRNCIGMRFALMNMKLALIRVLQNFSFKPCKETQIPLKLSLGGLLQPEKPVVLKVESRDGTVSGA
As to the kind of experiment: P450 CYP3A4 inhibitory activity screening (BFC substrate, fluorescence). The format is biochemical. The settings on record: P450 CYP3A4 inhibitory activity screening, fluorescent assay; read-out: CYP3A4 inhibition, IC50 (μM) fluorescent assay. Here is the method:
P450 CYP3A4 Inhibitory Activity Screening
Assay was conducted in a 200 μL volume in 96-well microtiter plates using cDNA-expressed human hepatic CYP3A4 (supersome, BD Gentest™ #456202). 7-Benzyloxy-4-trifluoromethyl-coumarin (BFC) was used as a substrate for CYP3A4. Test articles and substrate BFC were dissolved in 100% acetonitrile. The final volume of acetonitrile in the incubation mixture was less than 1% (volume/volume). Potassium phosphate buffer (pH 7.4, final concentration 0.1 M), MgCl2 (final concentration 8.3 mM), EDTA (final concentration 1.67 mM), a test article stock solution, a CYP3A4 supersome and NADPH (final concentration 0.25 mM) were added to each well. The reaction was initiated by the addition of substrate (BFC, final concentration 30 µM) after a 10 min pre-incubation at 37° C. After 10 min incubation at 37° C., the reaction was terminated by the addition of 75 μL of acetonitrile:0.5 M Tris-base=4:1 (volume/volume). Thereafter, Fluorescent signal was measured using a fluorometer. BFC metabolite, 7-hydroxy-4-trifluoromethyl-coumarin, was measured using an excitation wavelength of 409 nm and an emission wavelength of 530 nm.
As for `C=CCN1CC(=O)N2[C@@H](Cc3ccc(O)cc3)C(=O)N(Cc3cccc(C(=O)N(C)C)c3)C[C@@H]2N1C(=O)NCc1ccccc1` [compound 22], the IC50 is 11.6 µM.

As for `C=CCN1CC(=O)N2[C@@H](Cc3ccc(O)cc3)C(=O)N(Cc3cccc(C#N)c3)C[C@@H]2N1C(=O)NCc1ccccc1` [compound 19], the IC50 was determined as 9.65 µM.

For `C=CCN1CC(=O)N2[C@@H](Cc3ccc(O)cc3)C(=O)N(Cc3cccc(N4CCCC4=O)c3)C[C@@H]2N1C(=O)NCc1ccccn1` [compound 46], the IC50 was more than 50 µM.

Regarding `C=CCN1CC(=O)N2[C@@H](Cc3ccc(O)cc3)C(=O)N(Cc3cccc(C(=O)O)n3)C[C@@H]2N1C(=O)NCc1ccccc1` [compound 56], the IC50 was more than 50 µM.

Turning to `C=CCN1CC(=O)N2[C@@H](Cc3ccc(O)cc3)C(=O)N(Cc3cccc(C(=O)O)c3)C[C@@H]2N1C(=O)NCc1ccc(Cl)cc1Cl` [compound 50], the IC50 was more than 50 µM.

Regarding `C=CCN1CC(=O)N2C(Cc3ccc(O)cc3)C(=O)N(Cc3cccc4c(-c5ccccc5)cn(S(=O)(=O)c5ccccc5)c34)C[C@@H]2N1C(=O)NCc1ccccc1` (stereo partly shown) [compound 59], the IC50 was found to be 2.63 µM.

As to `C=CCN1CC(=O)N2[C@@H](Cc3ccc(O)cc3)C(=O)N(Cc3cccc(C(C)=O)c3)C[C@@H]2N1C(=O)NCc1ccccc1` [compound 15], the IC50 is 8.79 µM.

For `C=CCN1CC(=O)N2[C@@H](Cc3ccc(O)cc3)C(=O)N(Cc3cccc(C(=O)N(C)C)n3)C[C@@H]2N1C(=O)NCc1ccccc1` [compound 39], the IC50 worked out at 35.3 µM.

Regarding `C=CCN1CC(=O)N2[C@@H](Cc3ccc(O)cc3)C(=O)N(Cc3cccc(NC(C)=O)c3)C[C@@H]2N1C(=O)NCc1ccccc1` [compound 28], the IC50 was found to be 17.9 µM.

Take `C=CCN1CC(=O)N2[C@@H](Cc3ccc(OS(N)(=O)=O)cc3)C(=O)N(Cc3cccc(N4CCCC4=O)c3)C[C@@H]2N1C(=O)NCc1ccccc1` [compound 16]: the IC50 is 9 µM.

On to `C=CCN1CC(=O)N2[C@@H](Cc3ccc(O)cc3)C(=O)N(Cc3cccc(NC(=O)OC)c3)C[C@@H]2N1C(=O)NCc1ccccc1` [compound 33], for which the IC50 is 24.2 µM.

As to `C=CCN1CC(=O)N2[C@@H](Cc3ccc(O)cc3)C(=O)N(Cc3cccc(-c4ccc(S(C)(=O)=O)cc4)n3)C[C@@H]2N1C(=O)NCc1ccccc1` [compound 6], the IC50 worked out at 6.78 µM.

With `C=CCN1CC(=O)N2[C@@H](Cc3ccc(O)cc3)C(=O)N(Cc3cccc(C(=O)N4CCOCC4)c3)C[C@@H]2N1C(=O)NCc1ccccc1` [compound 20], the IC50 came out at 10.1 µM.

As to `C=CCN1CC(=O)N2[C@@H](Cc3ccc(OS(N)(=O)=O)cc3)C(=O)N(Cc3cccc(C(=O)NC)n3)C[C@@H]2N1C(=O)NCc1ccccc1` [compound 35], the IC50 stood at 26.4 µM.

Turning to `C=CCN1CC(=O)N2[C@@H](Cc3ccc(O)cc3)C(=O)N(Cc3cccc(C(=O)NCCO)c3)C[C@@H]2N1C(=O)NCc1ccccc1` [compound 42], the IC50 worked out at 44.1 µM.

For `C=CCN1CC(=O)N2[C@@H](Cc3ccc(O)cc3)C(=O)N(Cc3cccc(C(=O)O)c3)C[C@@H]2N1C(=O)NCc1ccccc1` [compound 54], the IC50 was more than 50 µM.

Regarding `C=CCN1CC(=O)N2[C@@H](Cc3ccc(O)cc3)C(=O)N(Cc3cccc(C(=O)NOC)c3)C[C@@H]2N1C(=O)NCc1ccccc1` [compound 41], the IC50 came out at 41.4 µM.

For the compound `C=CCN1CC(=O)N2[C@@H](Cc3ccc(O)cc3)C(=O)N(Cc3ccnc(C(N)=O)c3)C[C@@H]2N1C(=O)NCc1ccccc1` [compound 44], the IC50 was 45.1 µM.

Turning to `C=CCN1CC(=O)N2[C@@H](Cc3ccc(O)cc3)C(=O)N(Cc3cccc4c(C(=O)C5CC5)c[nH]c34)C[C@@H]2N1C(=O)NCc1ccccc1` [compound 61], the IC50 was 5.92 µM.

Turning to `C=CCN1CC(=O)N2[C@@H](Cc3ccc(O)cc3)C(=O)N(Cc3ccccc3S(C)(=O)=O)C[C@@H]2N1C(=O)NCc1ccccn1` [compound 34], the half-inhibitory concentration (IC50) is 24.5 µM.

For the compound `O=C(O)c1cccc(CN2C[C@H]3N(C(=O)CN(Cc4ccccc4)N3C(=O)NCc3ccccc3)[C@@H](Cc3ccc(O)cc3)C2=O)c1` [compound 49], the IC50 is more than 50 µM.

For `C=CCN1CC(=O)N2[C@@H](Cc3ccc(O)cc3)C(=O)N(Cc3cccc4c3ncn4CC#N)C[C@@H]2N1C(=O)NCc1ccccc1` [compound 4], the IC50 was found to be 5.4 µM.

Consider `C=CCN1CC(=O)N2[C@@H](Cc3ccc(O)cc3)C(=O)N(Cc3cccc(C(=O)N4CCCC4)c3)C[C@@H]2N1C(=O)NCc1ccccc1` [compound 1], for which the IC50 amounted to 5 µM.

For the compound `C=CCN1CC(=O)N2[C@@H](Cc3ccc(O)cc3)C(=O)N(Cc3ccc(CP(=O)(O)O)cc3)C[C@@H]2N1C(=O)NCc1ccccc1` [compound 57], the 50% inhibitory concentration (IC50) is more than 50 µM.

Regarding `C=CCN1CC(=O)N2[C@@H](Cc3ccc(O)cc3)C(=O)N(Cc3cccc(C(=O)NC)c3)C[C@@H]2N1C(=O)NCc1ccccc1` [compound 13], the IC50 was determined as 8 µM.

With `C=CCN1CC(=O)N2[C@@H](Cc3ccc(O)cc3)C(=O)N(Cc3cccc(C(N)=O)c3)C[C@@H]2N1C(=O)NCc1ccccc1` [compound 53], the IC50 is more than 50 µM.

In the case of `C=CCN1CC(=O)N2[C@@H](Cc3ccc(OS(N)(=O)=O)cc3)C(=O)N(Cc3cccc(C(=O)O)c3)C[C@@H]2N1C(=O)NCc1ccccc1` [compound 55], the IC50 is more than 50 µM.

Turning to `C=CCN1CC(=O)N2[C@@H](Cc3ccc(O)cc3)C(=O)N(Cc3cccc(C(N)=O)n3)C[C@@H]2N1C(=O)NCc1ccccc1` [compound 52], the IC50 is more than 50 µM.

Regarding `C=CCN1CC(=O)N2[C@@H](Cc3ccc(O)cc3)C(=O)N(Cc3cccc4c(=O)ccoc34)C[C@@H]2N1C(=O)NCc1ccccc1` [compound 9], the IC50 turned out to be 6.95 µM.

Consider `C=CCN1CC(=O)N2[C@@H](Cc3ccc(O)cc3)C(=O)N(Cc3cccc(C(=O)NC)n3)C[C@@H]2N1C(=O)NCc1ccccc1` [compound 25], for which the IC50 came out at 13.1 µM.

With `C=CCN1CC(=O)N2[C@@H](Cc3ccc(O)cc3)C(=O)N(Cc3cccc4c3nc(C(F)(F)F)n4C)C[C@@H]2N1C(=O)NCc1ccccc1` [compound 45], the IC50 is more than 10 µM.

As to `C=CCN1CC(=O)N2[C@@H](Cc3ccc(O)cc3)C(=O)N(Cc3cccc(-c4ccc[nH]c4=O)c3)C[C@@H]2N1C(=O)NCc1ccccc1` [compound 10], the IC50 is 7.02 µM.

As for `C=CCN1CC(=O)N2[C@@H](Cc3ccc(O)cc3)C(=O)N(Cc3ccccc3-n3cnnn3)C[C@@H]2N1C(=O)NCc1ccccc1` [compound 26], the IC50 turned out to be 13.5 µM.

On to `C=CCN1CC(=O)N2[C@@H](Cc3ccc(O)cc3)C(=O)N(Cc3cccc4c3ncn4C)C[C@@H]2N1C(=O)NCc1ccccn1` [compound 47], for which the IC50 is more than 50 µM.

Turning to `C#CCN1C[C@H]2N(C(=O)CN(CC=C)N2C(=O)NCc2ccccc2)[C@@H](Cc2ccc(O)cc2)C1=O` [compound 29], the IC50 is 18.1 µM.

With `C=CCN1CC(=O)N2[C@@H](Cc3ccccc3)C(=O)N(Cc3cccc(C(=O)O)c3)C[C@@H]2N1C(=O)NCc1ccccc1` [compound 48], the IC50 is more than 50 µM.

For `C=CCN1CC(=O)N2[C@@H](Cc3ccc(O)cc3)C(=O)N(Cc3cccc(C(=O)N[C@@H](CCC(=O)O)C(=O)O)c3)C[C@@H]2N1C(=O)NCc1ccccc1` [compound 51], the IC50 was more than 50 µM.

As to `C=CCN1CC(=O)N2[C@@H](Cc3ccc(O)cc3)C(=O)N(Cc3cccc(C(=O)NCCOC)n3)C[C@@H]2N1C(=O)NCc1ccccc1` [compound 32], the half-maximal inhibitory concentration (IC50) was determined as 19.9 µM.

For the compound `C=CCN1CC(=O)N2C(CN(Cc3ccccc3S(C)(=O)=O)C(=O)[C@@H]2Cc2ccc(O)cc2)N1C(=O)NCc1ccccc1` (stereo partly shown) [compound 30], the IC50 turned out to be 18.7 µM.

As for `C=CCN1CC(=O)N2[C@@H](Cc3ccc(O)cc3)C(=O)N(Cc3cccc(C(N)=O)c3[N+](=O)[O-])C[C@@H]2N1C(=O)NCc1ccccc1` [compound 43], the IC50 came out at 44.4 µM.

Still in this experiment, the particulars now being: human CYP3A4 supersome, substrate BFC, 10 min incubation at 37° C.; read-out: IC50 values of Compounds against CYP3A4 activity.
Consider `C=CCN1CC(=O)N2[C@@H](Cc3ccc(O)cc3)C(=O)N(Cc3cccc(NC(=O)OC)c3)C[C@@H]2N1C(=O)NCc1ccccc1` (single isomer, unassigned) [C], for which the IC50 came to 24.2 µM.

`C=CCN1CC(=O)N2[C@@H](Cc3ccc(O)cc3)C(=O)N(Cc3cccc(C(=O)NC)n3)C[C@@H]2N1C(=O)NCc1ccccc1` [A]: the IC50 is 13.1 µM.

In the case of `C=CCN1CC(=O)N2[C@@H](Cc3ccc(O)cc3)C(=O)N(Cc3cccc(N(C)C(=O)OC)c3)C[C@@H]2N1C(=O)NCc1ccccc1` [D], the IC50 was found to be 10.2 µM.

As usually defined, the IC50 is the point on the concentration scale where inhibition reaches its midpoint.
